We go through one compound from patent US20210220489A1, “AMYGDALAR NEURAL ENSEMBLE THAT ENCODES THE UNPL[…] PAIN” (The Board of Trustees of the Leland Stanford Junior …, priority 2020, published 2021).

Holding throughout (format): in vivo
Assay [1] has as its system control mice expressing eYFP in the BLA nociceptive ensemble. Put plainly: Pain behaviors in control mice expressing eYFP in the BLA nociceptive ensemble (no hM4). On the procedure: For chemogenetic activity manipulation of BLA neuronal ensembles, we intracranially injected 100 nL of either AAV5-hSyn-DIO-hM4-mCherry (U. North Carolina Viral Core; titre: 3.98×1012), AAV5-hSyn-DIO-mCherry (U. North Carolina Viral Core; titre: 4.72×1012), AAVDJ-Ef1a-DIO-eYFP (Stanford Viral Core; titre: 2.65×1011) into both the left and right BLA at coordinates AP: −1.20 mm, ML: ±3.1 mm, DV: −4.60 mm.
To evaluate mechanical reflexive sensitivity, we used a logarithmically increasing set of 8 von Frey filaments (Stoelting), ranging in gram force from 0.07- to 6.0-g (93). These filaments were applied perpendicular to the plantar hindpaw with sufficient force to cause a slight bending of the filament. A positive response was characterized as a rapid withdrawal of the paw away from the stimulus within 4 s. Using the Up-Down statistical method, the 50% withdrawal mechanical threshold scores were calculated for each mouse and then averaged across the experimental groups. The response frequency was calculated as the number of positive responses out of 10 stimulations, delivered at 30-s intervals.
To evaluate affective-motivational responses evoked by mechanical stimulation, we used three von Frey filaments (0.07-g, 0.4-g, and 2.0-g) and a sharp 25G syringe needle (pin prick) (94). […]
To evaluate affective-motivational responses evoked by thermal stimulation (81), we applied either a single, unilateral 50-μL drop of water (5, 30, or 55° C.) or acetone (evaporative cooling) to the left hindpaw, and the duration of attending behavior was collected for up to 60 s after the stimulation. […] The track was subdivided into 25 temperature zones (4.8-cm D per zone), and we assessed the temperature at the center of each zone by a K-probe thermocouple. […] A video camera placed above the track recorded the position of the mouse within the temperature zones, and videos were later analyzed using a video-tracking software (Etho-vision, Noldus) for duration of zone occupancy, zone visits, distance, velocity, and acceleration.

The test system of assay [2] is neuropathic TRAP^hM4 mice. Briefly: Two-chamber thermal escape-avoidance (cold place aversion) assay. The note with it: floor of one chamber cooled from 30° to 10° C. As for the experimental part:
To evaluate neuropathic adaptive cool/cold avoidance behavior, mice with SNI freely explored a two-temperature choice chamber. The chamber was constructed from adjoining two thermal plates (Bioseb): one reference plate set at 30° C., and a test plate with the temperature adjusted to either 30, 25, 20, 15, or 10° C. for independent trials. The test plate temperature order was randomized for each trial within the day. The chamber (white opaque plastic with no distinguishing features and no divider, 30.48×15.24×15.24 cm) was fitted onto the conjoined plates. At Day 56 post SNI and at 30-min post CNO injection, we placed mice on the reference plate facing the back wall. Mice then freely explored the chamber for 5 min, while an overhead camera recorded the chamber position and locomotion. After each trial, the mouse was returned to the holding cylinder, while the test plate temperature was rapidly cooled or heated to the next randomly assigned temperature trial. This procedure was repeated until all temperature trials were collected (6 temperature trials total). Video files for each trial were later analyzed using automated tracking software (Ethovision, Noldus) for path tracking, time spent on the test plate, and number of entries onto the test plate.

Assay [3] deals with ChR2-eYFP+ nociceptor mice. Briefly: Optical real-time place escape avoidance task. The note with it: CNO 10 mg/kg. From the text: To evaluate active avoidance and escape behaviors to optogenetically driven nociception, mice expressing ChR2 in peripheral primary afferent nociceptors freely explored a custom-built two-choice chamber with LED-lit floor panels. A 32×32 LED array (8×8 cm) illuminated half the array in blue light, and the other half in red light (˜0.3 mW/mm^2). A thin glass surface (0.5 cm thick) covered the array floor, upon which we fitted a black plastic chamber (38 cm H) with a center divider wall containing a square passage hole (5-cm D) raised 2.5 cm from the array floor. The entire LED chamber was maintained in a quiet room with low ambient light (˜5 lux). We first placed mice in the red-light chamber and then allowed them to freely explore the chambers for 15 min. A camera placed above the chamber recorded the location of the mouse in the apparatus. We manually scored the videos to determine the time spent by the mouse in each chamber (automated tracking was not possible given the light from the LED floor). Only one mouse was present in the room during all trials.

The mark [4] stands for this setting: CNO 10 mg/kg, AAVDJ-Ef1α-DIO-eYFP control mice.

Consider `C[N+]1([O-])CCN(C2=Nc3cc(Cl)ccc3Nc3ccccc32)CC1` [CNO, clozapine-N-oxide], for which, in assay [1] (setting [4]), the affective-motivational behaviors entry is “Lack of effect” and the reflexive behaviors entry is given as “Lack of effect”. In addition, in assay [1] (CNO alone, control mice), the pain behaviors entry is recorded as “had no effect”. Further, in assay [2], the “preference between cold and neutral temperature chambers” value is recorded as “near-total indifference”. For the same compound, the “aversion to the noxious blue light chamber” value in assay [3] is listed as “eliminated the aversion”.
